Entries after “also recorded” stand apart in the source; their conditions may differ.
Columns and labels:
[1] = test system: bovine luteal cells; conditions: bovine luteal cells in culture; ref Musah et al., 1990; cited from earlier work
Description: (§1) For many years there has been a controversy surrounding the existence or not of relaxin in ruminants, including cattle, sheep, and goats (Hartung et al., [1995]). A RLN2 homologous molecule is definitely expressed at the mRNA and/or protein levels in related ungulates, such as pigs, camels, llamas, and horses (James et al., [1977]; Stewart et al., [1991]; Bravo et al., [1996]; Hombach-Klonisch et al., [2000]; ncbi database: www-ncbi-nlm-nih-gov).

[2] = test system: beef cows; conditions: applied locally or systemically to beef cows at term; ref Musah et al., 1987; cited from earlier work
Description: as §1

[3] = test system: hRXFP1; experiment: cAMP production, HEK 293T cells permanently transfected with hRXFP1; type: cell-based, human; conditions: hRXFP1, permanently transfected HEK 293T, 20 min stimulation, cAMP by TRFIA, three-parameter non-linear regression, pRLN converted to nM assuming MW 6 kD and purity 85%
Description: (§2) For transfection, the Neon electroporation system (Invitrogen) was used: the bRXFP1 or bRXFP2 expression plasmids were mixed with HEK 293T cells in a ratio of ~0.2 μg DNA/50,000 cells/well (48-well plate), and pulsed at 1,300 V for 30 ms to transfect the DNA into the cells. Plasmids were allowed to express for 24 h with the transfected cells cultured in DMEM/F12 (1:1) at 37°C with 5% CO2. In parallel, HEK 293T cells which had been permanently transfected with human RXFP1 or human RXFP2 (Heng et al., [2008]) were plated at 50,000 cells/well in a 48-well plate, and cultured overnight in DMEM/F12 (1:1) with 10% bovine fetal serum, 2 mM L-glutamine and 1% Penicillin-Streptomycin at 37°C with 5% CO2.
(§3) For the transient and permanently transfected HEK 293T cells and the primary myometrial (6,000 cells/well) and theca cells (20,000 cells/well), after the initial pre-culture period (as above) medium was changed and supplemented or not with 1 mM IBMX (3-isobutyl-1-methylxanthine; Sigma) as indicated (30 min for myometrial cells, 10 min for theca cells). Following this pre-incubation, cells were supplemented or not with various peptides, also as indicated in the figure legends, and incubation continued for a further 20 min. Total cAMP was extracted from the combined cells and culture medium from each well and measured by time-resolved fluorescent immunoassay (TRFIA) as described in Anand-Ivell et al. ([2007]). cAMP production by the transfected HEK 293 cells was measured directly (range1–243 pmol/ml); cAMP from primary myometrial and theca cells made use of the more sensitive TRFIA employing sample acetylation (detection range 0.04–9.72 pmol/ml).
(§4) All data were analyzed and plotted using GraphPad Prism 6. The EC50 values were calculated by non-linear regression of log (agonist) against response (three parameter). All column data were analyzed by ANOVA followed by Neuman-Keuls post-hoc test.

[4] = test system: bRXFP1; experiment: cAMP production, HEK293T cells transiently transfected with bRXFP1; type: cell-based, bovine; conditions: for EC50: bRXFP1, transient transfection HEK293T, 20 min stimulation, cAMP by TRFIA, three-parameter non-linear regression, pRLN converted to nM assuming MW 6 kD and purity 85%, bINSL3 curve had not reached an asymptote at highest concentration; for stimulation of cAMP production: bRXFP1, within the range of concentration applied (Figure 9A)
Description: (§5) Preliminary studies, prior to the publication of the bovine genome project, had employed heterologous RT-PCR primers, derived from human sequence information, together with RNA from selected bovine tissues. Initial sequence information obtained was subsequently fully confirmed by the bovine genome project, which is used here for reference. Having confirmed by RT-PCR the correct sequences for the full-length functional bRXFP1 and bRXFP2 transcripts, expression constructs were generated, whereby the signal peptides of the two receptor sequences were replaced by the signal peptide-encoding sequence from the bovine prolactin gene, together with an intermediate short FLAG sequence, exactly as used previously for the expression of the human RXFP1 and RXFP2, and other G-protein coupled receptors (Hsu et al., [2000], [2002]). The two final bovine constructs were generated from assembled multiple oligonucleotides (custom gene synthesis by GeneArt, Regensburg, Germany), their sequences confirmed, and inserted into the vector pcDNA3.1/Zeo(+) (Invitrogen) for expression.
as §2, §3, §4

[5] = test system: hRXFP2; experiment: cAMP production, HEK 293T cells permanently transfected with hRXFP2; type: cell-based, human; conditions: for EC50: hRXFP2, permanently transfected HEK 293T, 20 min stimulation, cAMP by TRFIA, three-parameter non-linear regression, pRLN converted to nM assuming MW 6 kD and purity 85%, its curve had not reached an asymptote at highest concentration
Description: as §2, §3, §4

[6] = test system: bovine myometrial cells; experiment: cAMP production in primary bovine myometrial cells; type: cell-based; conditions: 20 min, 1 mM IBMX (Figure 8A)
Description: Bovine tissues were obtained from the local slaughterhouse. Tissue collection was in accordance with German, British and European laws and provisions for ethical regulation. Cumulus-oocyte complexes (COCs) were collected and categorized exactly as in Janowski et al. ([2012]). For oocyte RNA preparation, COCs were mechanically denuded using a glass pipette followed by a 2 min trypsin incubation (1x Trypsin-EDTA solution; T4174; Sigma, Deisenhofen, Germany) to remove residual cumulus cells, then frozen at −80°C. Bovine myometrial cells were prepared from excised uteri exactly as in Heng et al. ([2008]). The isolated myometrial cells were plated at 6,000 cells/well in a 48-well plate and cultured at 37°C with 5% CO2 for 5 days before stimulation. Bovine ovaries without an obvious corpus luteum were selected for the isolation of granulosa and theca interna cells from mid-phase antral follicles (ca. 6–10 mm diameter) using standard procedures (Holtorf et al., [1989]; Bathgate et al., [1999]). Follicular fluid, including COCs and granulosa cells, was aspirated from the follicles, and collected in granulosa culture medium (DMEM/F-12 (1:1) with 1% bovine fetal serum, 1% antibiotic-antimycotic (ABAM), 2 mM L-glutamine). After manually removing the COCs, the granulosa cells were harvested by centrifugation (150 g, 10 min) and rinsed once with culture medium as above. Four to six millimeters follicles were obtained by dissection. The theca interna layer of mid-phase antral follicles was peeled off and digested with collagenase IV (1 mg/ml) in Medium 199, including trypsin inhibitor (100 μg/ml) at 38°C for 1 h. The isolated theca cells were collected and washed in Medium 199 with 1% ABAM. […]
as §3, with “Following this pre-incubation, cells were supplemented or not with various peptides, also as indicated in the figure legends, and incubation continued for a further 20 min.” left out
as §4

[7] = test system: bRXFP2; experiment: cAMP production, HEK293T cells transiently transfected with bRXFP2; type: cell-based, bovine; conditions: for stimulation of cAMP production: bRXFP2 (Figure 9B, Table 1); for EC50: bRXFP2, transient transfection HEK293T, 20 min stimulation, cAMP by TRFIA, three-parameter non-linear regression, pRLN converted to nM assuming MW 6 kD and purity 85%
Description: as §5, §2, §3, §4

[8] = test system: bovine sperm; conditions: ref Miah et al., 2011; cited from earlier work
Description: as §1

[9] = test system: RXFP1; conditions: ref Bathgate et al., 2006; cited from earlier work
Description: The relaxin family of peptide hormones includes, besides relaxin (RLN2), also relaxin 3 (RLN3), insulin-like peptide 3 (INSL3), INSL5, and INSL6. Additionally, within higher primates and humans there is RLN1 and INSL4. […] RLN2 and INSL3 on the other hand are usually expressed in reproductive tissues of both sexes and ...

[10] = test system: bovine theca cells; experiment: cAMP production in primary bovine theca cells; type: cell-based; conditions: 20 min, 1 mM IBMX (Figure 8B,C)
Description: Bovine tissues were obtained from the local slaughterhouse. Tissue collection was in accordance with German, British and European laws and provisions for ethical regulation. Cumulus-oocyte complexes (COCs) were collected and categorized exactly as in Janowski et al. ([2012]). For oocyte RNA preparation, COCs were mechanically denuded using a glass pipette followed by a 2 min trypsin incubation (1x Trypsin-EDTA solution; T4174; Sigma, Deisenhofen, Germany) to remove residual cumulus cells, then frozen at −80°C. Bovine myometrial cells were prepared from excised uteri exactly as in Heng et al. ([2008]). […]
as §3, with “Following this pre-incubation, cells were supplemented or not with various peptides, also as indicated in the figure legends, and incubation continued for a further 20 min.” left out, “pmol/ml). […]” for “pmol/ml).”

EC50 [3]	EC50 [4]	EC50 [5]	EC50 [7]	Molecule	stimulation of cAMP production [4]	cAMP production [6]	stimulation of cAMP production [7]	other results
0.4 nM	10.8 nM	> 12 nM	10.5 nM	porcine relaxin [pRLN]	showed any stimulation within the range of concentration applied	significant stimulation was observed at all concentrations applied	could stimulate at very high concentration	oxytocin production [1]: significantly suppressed oxytocin production; softening and dilatation response [2]: elicited a classic softening and dilatation response, thereby influencing calving period; EC50 ([3]; listed as porcine RLN): < 1 nM
0.9 nM	48.7 nM	53.9 nM	27.3 nM	recombinant human relaxin [rhRLN]	showed any stimulation within the range of concentration applied	–	could stimulate at very high concentration	EC50 ([3]; listed as human RLN): < 1 nM

The next lines start with the molecule.

Molecule	EC50 [3]	EC50 [4]	EC50 [5]	EC50 [7]	stimulation of cAMP production [4]	cAMP production [6]	stimulation of cAMP production [7]	other results
relaxin	–	–	–	–	–	significant increase in cAMP	–	sperm functional parameters [8]: significantly to affect bovine sperm functional parameters
relaxin 3 [hRLN3]	14.6 nM	97.9 nM	–	–	showed any stimulation within the range of concentration applied	–	unable to stimulate	affinity at RXFP1 [9]: reduced affinity; stimulation of cAMP production ([5]; hRXFP2 (Table 1)): unable to stimulate; stimulation of cAMP production ([7]; listed as RLN3): but not RLN3, could stimulate at very high concentration
bovine INSL3 (protein, UniProt O77801 22-66; O77801 27-66; O77801 107-132, looked up, bovine insulin-like peptide 3, cognate ligand of bovine RXFP2) Insulin-like 3 B' chain: GPAAAQEAPEKLCGHHFVRALVRLCGGPRWSSEEDGRPVAGGDRE Insulin-like 3 B chain: QEAPEKLCGHHFVRALVRLCGGPRWSSEEDGRPVAGGDRE Insulin-like 3 A chain: ATAINPARHCCLSGCTRQDLLTLCPH	–	–	0.6 nM	0.7 nM	–	–	effective at low concentrations	cAMP production ([6]; listed as INSL3): significant increase in cAMP; cAMP production ([6]; listed as bovine INSL3): significant stimulation was observed at all concentrations applied; cAMP production [10]: dose-dependent increase in cAMP; also recorded: able significantly to stimulate cAMP production in a dose-dependent manner; EC50 ([7]; listed as bovine INSL3): < 1 nM
human INSL3 (protein, UniProt P51460 21-55; P51460 106-131, looked up, human insulin-like peptide 3) Insulin-like 3 B chain: LGPAPTPEMREKLCGHHFVRALVRVCGGPRWSTEA Insulin-like 3 A chain: AAATNPARYCCLSGCTQQDLLTLCPY	–	–	0.7 nM	0.6 nM	–	–	–	–

Source: PMC5459885, “Relaxin-Family Peptide Receptors 1 and 2 Are Fully Functional in the Bovine” (Frontiers in Physiology, 2017)
